The results in this text go back to US20240182461A1, “SELECTIVE ANGIOTENSIN II RECEPTOR LIGANDS” (priority 2021, published 2024).

What all share (assay type): in vitro ADME
One data set has as its system CYP3A4&5. The data set is described as follows: CYP inhibition in human liver microsomes, CYP3A4&5 testosterone. The following applies: probe testosterone, substrate testosterone, read-out: CYP3A4&5 testosterone Inh %. (In general: Liver microsomes are vesicles of endoplasmic reticulum, rich in cytochrome P450 enzymes.)
A further data set deals with T1, CYP2D6 (Homo sapiens, UniProt P10635).
T1 construct: incubated with human liver microsomes; from tissue; host or cells: human liver microsomes
T1 sequence (P10635 whole entry): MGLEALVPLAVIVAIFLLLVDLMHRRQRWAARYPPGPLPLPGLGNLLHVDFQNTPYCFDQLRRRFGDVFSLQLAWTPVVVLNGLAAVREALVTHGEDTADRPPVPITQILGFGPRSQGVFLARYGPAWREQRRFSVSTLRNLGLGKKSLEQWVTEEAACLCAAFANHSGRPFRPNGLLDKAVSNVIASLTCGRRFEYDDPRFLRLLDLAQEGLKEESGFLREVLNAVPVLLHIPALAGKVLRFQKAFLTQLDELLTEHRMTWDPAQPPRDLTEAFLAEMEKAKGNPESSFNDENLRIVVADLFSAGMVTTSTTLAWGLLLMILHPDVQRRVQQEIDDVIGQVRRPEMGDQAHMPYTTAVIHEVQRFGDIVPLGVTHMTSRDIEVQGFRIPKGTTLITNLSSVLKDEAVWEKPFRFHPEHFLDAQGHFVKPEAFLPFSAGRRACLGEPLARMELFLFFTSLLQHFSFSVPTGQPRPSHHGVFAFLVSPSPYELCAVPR
The data set is described as follows: CYP inhibition in human liver microsomes, CYP2D6. The following applies: probe dextromethorphan, substrate dextromethorphan, read-out: CYP2D6 Inh %.

A short description of data set [1]: Metabolic stability in pooled human liver microsomes. The following applies: human liver microsomes 0.5 mg/mL, 1 μM compound, 37° C.
In a further data set the target is CYP3A4 (Homo sapiens, UniProt P08684). Briefly: CYP inhibition in human liver microsomes, CYP3A4 midazolam. More on the design: incubated with human liver microsomes; from tissue; host or cells: human liver microsomes. Particulars: probe midazolam, substrate midazolam, read-out: CYP3A4 midazolam Inh %.
Chain of CYP3A4 (P08684 whole entry): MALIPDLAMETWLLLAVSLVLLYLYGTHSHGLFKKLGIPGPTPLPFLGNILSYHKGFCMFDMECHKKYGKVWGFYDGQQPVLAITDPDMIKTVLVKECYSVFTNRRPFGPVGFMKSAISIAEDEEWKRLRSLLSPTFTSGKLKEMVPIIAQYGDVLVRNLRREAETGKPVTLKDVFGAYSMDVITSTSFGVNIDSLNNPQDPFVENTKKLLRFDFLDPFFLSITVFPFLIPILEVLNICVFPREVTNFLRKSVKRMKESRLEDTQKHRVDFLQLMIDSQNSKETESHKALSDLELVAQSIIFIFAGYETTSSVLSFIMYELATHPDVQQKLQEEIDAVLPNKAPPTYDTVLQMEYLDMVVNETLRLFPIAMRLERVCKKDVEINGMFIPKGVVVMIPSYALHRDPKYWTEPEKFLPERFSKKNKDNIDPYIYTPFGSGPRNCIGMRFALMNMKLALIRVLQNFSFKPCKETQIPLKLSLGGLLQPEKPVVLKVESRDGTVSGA
For a further data set, the target named is CYP2C9 (Homo sapiens, UniProt P11712). The data set is described as follows: CYP inhibition in human liver microsomes, CYP2C9. Also noted: incubated with human liver microsomes; from tissue; host or cells: human liver microsomes. Particulars: probe diclofenac, substrate diclofenac, read-out: CYP2C9 Inh %.
Chain of CYP2C9 (P11712 whole entry): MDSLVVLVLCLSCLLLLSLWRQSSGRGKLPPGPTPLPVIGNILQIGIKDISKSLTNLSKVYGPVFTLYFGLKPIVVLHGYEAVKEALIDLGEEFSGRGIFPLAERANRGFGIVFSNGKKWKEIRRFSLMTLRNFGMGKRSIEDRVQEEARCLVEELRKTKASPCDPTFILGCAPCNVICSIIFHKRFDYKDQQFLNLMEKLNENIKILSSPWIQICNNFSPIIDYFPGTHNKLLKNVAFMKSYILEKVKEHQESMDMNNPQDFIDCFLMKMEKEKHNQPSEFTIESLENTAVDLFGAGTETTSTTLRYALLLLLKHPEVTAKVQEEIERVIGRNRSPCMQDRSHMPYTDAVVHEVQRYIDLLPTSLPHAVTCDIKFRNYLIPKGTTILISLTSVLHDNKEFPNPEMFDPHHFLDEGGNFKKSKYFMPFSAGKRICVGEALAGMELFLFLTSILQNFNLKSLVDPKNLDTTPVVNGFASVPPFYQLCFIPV
A further data set has as its target T2, CYP2B6 (Homo sapiens, UniProt P20813).
T2 construct: incubated with human liver microsomes; from tissue; host or cells: human liver microsomes
T2 sequence (P20813 1-491): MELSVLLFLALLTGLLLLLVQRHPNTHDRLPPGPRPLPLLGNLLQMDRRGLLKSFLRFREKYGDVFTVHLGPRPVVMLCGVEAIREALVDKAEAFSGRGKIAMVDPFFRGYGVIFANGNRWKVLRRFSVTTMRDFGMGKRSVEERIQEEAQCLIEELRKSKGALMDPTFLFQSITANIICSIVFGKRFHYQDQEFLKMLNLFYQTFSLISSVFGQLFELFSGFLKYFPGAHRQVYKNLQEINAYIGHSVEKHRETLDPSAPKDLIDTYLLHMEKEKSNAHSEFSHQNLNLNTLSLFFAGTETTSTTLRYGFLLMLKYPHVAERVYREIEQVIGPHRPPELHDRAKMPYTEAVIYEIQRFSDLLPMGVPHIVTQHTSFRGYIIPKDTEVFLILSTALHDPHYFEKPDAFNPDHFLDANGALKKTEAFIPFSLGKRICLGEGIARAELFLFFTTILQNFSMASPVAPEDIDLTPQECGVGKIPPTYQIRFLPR
Briefly: CYP inhibition in human liver microsomes, CYP2B6. The following applies: probe bupropion, substrate bupropion, read-out: CYP2B6 Inh %.

Another data set has as its target T3, CYP2C19 (Homo sapiens, UniProt P33261).
T3 construct: incubated with human liver microsomes; from tissue; host or cells: human liver microsomes
Briefly: CYP inhibition in human liver microsomes, CYP2C19. Particulars: probe omeprazole, substrate omeprazole, read-out: CYP2C19 Inh %.

Another data set concerns the target T4, CYP1A (Homo sapiens, UniProt P05177).
T4 construct: incubated with human liver microsomes; from tissue; host or cells: human liver microsomes
The data set is described as follows: CYP inhibition in human liver microsomes, CYP1A. Particulars: probe phenacetin, substrate phenacetin, read-out: CYP1A Inh %.

Another data set concerns the target T5, CYP2C8 (Homo sapiens, UniProt P10632).
T5 construct: incubated with human liver microsomes; from tissue; host or cells: human liver microsomes
T5 sequence (P10632 1-490): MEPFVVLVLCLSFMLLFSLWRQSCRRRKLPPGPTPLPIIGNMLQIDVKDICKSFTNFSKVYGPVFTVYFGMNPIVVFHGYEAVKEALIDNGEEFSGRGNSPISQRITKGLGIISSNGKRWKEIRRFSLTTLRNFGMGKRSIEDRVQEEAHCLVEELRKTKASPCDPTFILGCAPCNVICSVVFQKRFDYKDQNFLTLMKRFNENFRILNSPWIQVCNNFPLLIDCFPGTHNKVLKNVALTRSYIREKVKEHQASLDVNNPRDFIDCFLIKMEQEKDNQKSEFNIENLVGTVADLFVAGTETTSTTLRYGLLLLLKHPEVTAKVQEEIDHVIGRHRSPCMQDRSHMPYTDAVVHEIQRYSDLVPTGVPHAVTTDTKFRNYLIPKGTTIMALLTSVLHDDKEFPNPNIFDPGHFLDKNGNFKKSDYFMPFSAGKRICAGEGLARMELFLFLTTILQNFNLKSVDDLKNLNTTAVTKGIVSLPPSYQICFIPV
Briefly: CYP inhibition in human liver microsomes, CYP2C8. Particulars: probe paclitaxel and amodiaquine, substrates paclitaxel and amodiaquine, read-out: CYP2C8 Inh %.

Where [2] appears, read: with 1 mM NADPH, read-out: T1/2, + NaDPH.
Where [3] appears, read: without NADPH, read-out: T1/2, no NaDPH.

Each structure is given as a SMILES string. Read-outs that look alike come from different tables or passages of the source.

T3 sequence (P33261 whole entry): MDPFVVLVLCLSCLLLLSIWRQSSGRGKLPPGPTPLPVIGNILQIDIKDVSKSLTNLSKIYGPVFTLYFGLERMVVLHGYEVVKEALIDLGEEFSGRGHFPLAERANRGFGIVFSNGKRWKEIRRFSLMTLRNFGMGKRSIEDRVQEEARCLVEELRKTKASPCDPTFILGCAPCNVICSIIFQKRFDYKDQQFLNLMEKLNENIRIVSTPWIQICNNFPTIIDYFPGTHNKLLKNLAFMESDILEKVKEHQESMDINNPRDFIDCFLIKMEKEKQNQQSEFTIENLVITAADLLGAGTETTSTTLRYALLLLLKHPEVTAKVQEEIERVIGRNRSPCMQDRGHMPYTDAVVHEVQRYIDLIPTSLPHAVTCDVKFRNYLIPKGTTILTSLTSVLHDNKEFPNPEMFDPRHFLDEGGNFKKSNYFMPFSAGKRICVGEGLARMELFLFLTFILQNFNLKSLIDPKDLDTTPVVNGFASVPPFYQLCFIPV
T4 sequence (P05177 whole entry): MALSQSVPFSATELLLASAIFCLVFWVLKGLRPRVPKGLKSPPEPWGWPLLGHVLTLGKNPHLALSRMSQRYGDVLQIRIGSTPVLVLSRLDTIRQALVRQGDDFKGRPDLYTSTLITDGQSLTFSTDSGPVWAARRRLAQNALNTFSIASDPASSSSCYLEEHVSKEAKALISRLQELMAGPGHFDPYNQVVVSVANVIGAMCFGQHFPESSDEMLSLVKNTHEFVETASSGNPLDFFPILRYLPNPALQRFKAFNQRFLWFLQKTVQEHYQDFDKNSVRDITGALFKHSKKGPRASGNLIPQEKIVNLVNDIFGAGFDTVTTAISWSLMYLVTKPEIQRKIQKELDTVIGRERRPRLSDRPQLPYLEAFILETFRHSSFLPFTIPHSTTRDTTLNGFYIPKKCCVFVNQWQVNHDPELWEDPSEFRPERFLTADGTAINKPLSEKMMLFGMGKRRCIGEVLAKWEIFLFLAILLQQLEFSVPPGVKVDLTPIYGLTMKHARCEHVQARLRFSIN

For `COC(=O)NS(=O)(=O)c1ccc(CC(C)C)cc1-c1ccc(Cn2ccnc2C(C)C)c(F)c1` [Example 9, Methyl ((3′-fluoro-5-isobutyl-4′-((2-isopropyl-1H-imidazol-1-yl)methyl)-[1,1′-biphenyl]-2-yl)sulfonyl)carbamate], the inhibition at 10 µM in the data set on CYP3A4&5 is 17.5%; at CYP2D6, -2.4%; on CYP3A4, -4.9%; at CYP2C9, 37.9%; on CYP2B6 it was 28.2%; on CYP2C19 it was 27.2%. The inhibition at 10 µM is 2.5% on CYP1A and 77.2% on CYP2C8. The half-life at 1 μM in [1] (setting [2]) and in data set [1] (setting [3]) was > 60 min in each case.
For the compound `CCCCOC(=O)NS(=O)(=O)c1ccc(CC(C)C)cc1-c1ccc(Cn2ccnc2C(C)C)c(F)c1` [Example 7, Butyl ((3′-fluoro-5-isobutyl-4′-((2-isopropyl-1H-imidazol-1-yl)methyl)-[1,1′-biphenyl]-2-yl)sulfonyl)carbamate], the inhibition at 10 µM with CYP3A4&5 is 29.7%; on CYP2D6, -4.1%; on CYP3A4 it was 9.7%; at CYP2C9 it was 80.7%; at CYP2B6, 52.2%; at CYP2C19, 59.3%. The inhibition at 10 µM turned out to be 6.3% on CYP1A and 73.9% on CYP2C8. The figures for the half-life at 1 μM in [1] (setting [2]) and in data set [1] (setting [3]) were 18 min and 20 min, respectively.
For `CCc1nccn1Cc1ccc(-c2cc(CC(C)C)ccc2S(=O)(=O)NC(=O)OC)cc1F` [Example 15, Methyl ((4′-((2-ethyl-1H-imidazol-1-yl)methyl)-3′-fluoro-5-isobutyl-[1,1′-biphenyl]-2-yl)sulfonyl)carbamate], the inhibition at 10 µM is 18.4% in the data set with CYP3A4&5; 2.2% at CYP2D6; -5.3% on CYP3A4; 59.6% at CYP2C9; 16.1% at CYP2B6; 21.5% on CYP2C19. Further, the inhibition at 10 µM at CYP1A amounted to 7%; at CYP2C8, 52.4%. Further, the half-life at 1 μM in data set [1] (setting [2]) and in data set [1] (setting [3]) was > 60 min throughout.
With `CCCCOC(=O)NS(=O)(=O)c1ccc(CC(C)C)cc1-c1ccc(Cn2ccnc2CC)c(F)c1` [Example 11, Butyl ((4′-((2-ethyl-1H-imidazol-1-yl)methyl)-3′-fluoro-5-isobutyl-[1,1′-biphenyl]-2-yl)sulfonyl)carbamate], the inhibition at 10 µM with CYP3A4&5 turned out to be 30.5%; on CYP2D6, 0.3%; on CYP3A4, 5.6%; at CYP2C9 it was 81.3%; on CYP2B6, 35%; on CYP2C19, 59.3%. Further, the values for the inhibition at 10 µM on CYP1A and at CYP2C8 were 4.3% and 61.3%, respectively. The half-life at 1 μM in data set [1] (setting [2]) and in data set [1] (setting [3]) was 26 min each time.
In the case of `COC(=O)NS(=O)(=O)c1ccc(CC(C)C)cc1-c1ccc(Cn2ccnc2C)c(F)c1` [Example 13, Methyl ((3′-fluoro-5-isobutyl-4′-((2-methyl-1H-imidazol-1-yl)methyl)-[1,1′-biphenyl]-2-yl)sulfonyl)carbamate], the inhibition at 10 µM in the data set with CYP3A4&5 was 14.5%; at CYP2D6, -0.8%; on CYP3A4, 9.3%; at CYP2C9, 32.3%; at CYP2B6, 18.4%; on CYP2C19, 24.6%. For the same compound, the values for the inhibition at 10 µM on CYP1A and at CYP2C8 were 7.6% and 27.7%, respectively. Further, the half-life at 1 μM in [1] (setting [2]) and in data set [1] (setting [3]) was > 60 min in each case.
For `CCCCOC(=O)NS(=O)(=O)c1ccc(CC(C)C)cc1-c1ccc(Cn2ccnc2C)c(F)c1` [Example 10, Butyl ((3′-fluoro-5-isobutyl-4′-((2-methyl-1H-imidazol-1-yl)methyl)-[1,1′-biphenyl]-2-yl)sulfonyl)carbamate], the inhibition at 10 µM in the data set with CYP3A4&5 was 24.5%; at CYP2D6, -12.9%; on CYP3A4, 11.5%; on CYP2C9, 68.6%; at CYP2B6 it was 31.8%; on CYP2C19, 54.9%. The results for the inhibition at 10 µM at CYP1A and on CYP2C8 were 3.2% and 46.9%, respectively. For the same compound, the half-life at 1 μM in data set [1] (setting [2]) amounted to 32 min; in [1] (setting [3]) it was 35 min.
With `CCOC(=O)NS(=O)(=O)c1ccc(CC(C)C)cc1-c1ccc(Cn2ccnc2C(C)(C)C)c(F)c1` [Example 6, Ethyl ((4′-((2-(tert-butyl)-1H-imidazol-1-yl)methyl)-3′-fluoro-5-isobutyl-[1,1′-biphenyl]-2-yl)sulfonyl)carbamate], the inhibition at 10 µM in the data set on CYP3A4&5 was determined as 31%; at CYP2D6, 33.1%; on CYP3A4 it was 19.9%; on CYP2C9, 72.2%; on CYP2B6, 26.4%; on CYP2C19 it was 49.3%. Also, the inhibition at 10 µM was determined as 8.6% on CYP1A and 53% at CYP2C8. Also, the half-life at 1 μM in [1] (setting [2]) was 12 min; in data set [1] (setting [3]), 14 min.
As for `CCOC(=O)NS(=O)(=O)c1ccc(CC(C)C)cc1-c1ccc(Cn2ccnc2CC)c(F)c1` [Example 14, Ethyl ((4′-((2-ethyl-1H-imidazol-1-yl)methyl)-3′-fluoro-5-isobutyl-[1,1′-biphenyl]-2-yl)sulfonyl)carbamate], the inhibition at 10 µM was 21.9% in the data set on CYP3A4&5; 0.1% on CYP2D6; -4.2% at CYP3A4; 68% on CYP2C9; 20.6% on CYP2B6; 40.9% at CYP2C19. Besides, the inhibition at 10 µM at CYP1A amounted to 9.4%; at CYP2C8, 57.6%. The half-life at 1 μM in data set [1] (setting [2]) was 43 min; in data set [1] (setting [3]), 46 min.
Consider `COC(=O)NS(=O)(=O)c1ccc(CC(C)C)cc1-c1ccc(Cn2ccnc2C(C)(C)C)c(F)c1` [Example 5, Methyl ((4′-((2-(tert-butyl)-1H-imidazol-1-yl)methyl)-3′-fluoro-5-isobutyl-[1,1′-biphenyl]-2-yl)sulfonyl)carbamate], for which the inhibition at 10 µM with CYP3A4&5 stood at 15.1%; at CYP2D6, 17.7%; on CYP3A4, 3.8%; at CYP2C9, 72%; on CYP2B6 it was 26.2%; on CYP2C19, 34.4%. Moreover, the results for the inhibition at 10 µM on CYP1A and at CYP2C8 were -13.1% and 87.9%, respectively. The half-life at 1 μM in data set [1] (setting [2]) and in data set [1] (setting [3]) was > 60 min throughout.
For the compound `CC(C)Cc1ccc(S(=O)(=O)NC(=O)OCCO)c(-c2ccc(Cn3ccnc3C(C)(C)C)cc2)c1` [Example 16, 2-Hydroxyethyl (4′-((2-(tert-butyl)-1H-imidazol-1-yl)methyl)-5-isobutyl-[1,1′-biphenyl]-2-yl)sulfonylcarbamate], the half-life at 1 μM in [1] (setting [2]) and in [1] (setting [3]) was > 60 min in each case.
